Measured values reported in the PolyMetriX glass transition set.
± gives the standard deviation of the reports.

Row | glass transition temperature [°C] | Structure (SMILES)
1 | 112.00 | */C=C/c1ccc(OC(=O)c2ccc(C(=O)Oc3cccc4ccc(*)nc34)cc2)cc1 (repeat unit)
2 | 203.50 | *Oc1ccc(-c2ccc(Oc3ccc(-c4ccc(-c5ccc(*)c(C(F)(F)F)c5)cc4)cc3C(F)(F)F)cc2)cc1 (repeat unit)
3 | 278.50 | *c1ccc2c(c1)C(=O)N(c1c(C(C)C)cc(Cc3cc(C(C)C)c(N4C(=O)c5ccc(C(*)(C(F)(F)F)C(F)(F)F)cc5C4=O)c(C(C)C)c3)cc1C(C)C)C2=O (repeat unit)
4 | 197.00 | *C(=O)c1ccc2c(c1)C(=O)N(c1cc(-c3nc4ccccc4[nH]3)cc(N3C(=O)c4ccc(*)cc4C3=O)c1)C2=O (repeat unit)
5 | 241.00 ± 12 | *c1ccc(Oc2ccc(N3C(=O)c4ccc(Oc5ccc(Oc6ccc7c(c6)C(=O)N(*)C7=O)cc5)cc4C3=O)cc2)cc1 (repeat unit)
6 | 78.00 | *CCCCCCOc1ccc(C(=O)N(C(=O)c2ccc(O*)cc2)c2ccc(Oc3ccccc3)cc2)cc1 (repeat unit)
7 | 148.00 | *c1ccc(-c2ccc(-c3ccc(-c4ccc(N(*)c5ccc(C)cc5)cc4)c4c(C)ccc(C)c34)c3c(C)ccc(C)c23)cc1 (repeat unit)
8 | 305.00 | *c1ccc2c(c1)C(=O)N(c1ccc(C(c3ccccc3)(c3ccc(N4C(=O)c5ccc(C(*)(C(F)(F)F)C(F)(F)F)cc5C4=O)cc3)C(F)(F)F)cc1)C2=O (repeat unit)
9 | 280.00 | *Oc1ccc(NC(=C(C#N)C#N)c2ccc3cc(C(Nc4ccc(*)cc4)=C(C#N)C#N)ccc3c2)cc1 (repeat unit)
10 | 308.00 | *c1cccc(N2C(=O)c3ccc(C(c4ccc5c(c4)C(=O)N(c4cccc(N6C(=O)c7ccc(-c8ccc9c(c8)C(=O)N(*)C9=O)cc7C6=O)c4)C5=O)(C(F)(F)F)C(F)(F)F)cc3C2=O)c1 (repeat unit)
11 | 289.00 | *C(=O)c1ccc2c(c1)C(=O)N(c1ccccc1C(=O)c1ccccc1N1C(=O)c3ccc(*)cc3C1=O)C2=O (repeat unit)
12 | 307.50 | *c1ccc2c(c1)C(=O)N(c1c(C)cc(Cc3cc(C)c(N4C(=O)c5ccc(C(*)(C(F)(F)F)C(F)(F)F)cc5C4=O)c(C)c3)cc1C)C2=O (repeat unit)
13 | 394.00 | *c1ccc2c(c1)C(=O)N(c1ccc3c(c1)Cc1cc(N4C(=O)c5ccc(C(*)(C(F)(F)F)C(F)(F)F)cc5C4=O)ccc1-3)C2=O (repeat unit)
14 | 234.00 | *Oc1ccc(C2(c3ccc(OC(=O)CCC(*)=O)cc3)c3ccccc3-c3ccccc32)cc1 (repeat unit)
15 | 178.00 | *Oc1ccc(S(=O)(=O)c2ccc(Oc3ccc(C(=O)c4cccc(C(=O)c5ccc(*)cc5)c4)cc3)cc2)cc1 (repeat unit)
16 | 248.00 | *c1ccc(Oc2ccc(-c3ccc(Oc4ccc(N5C(=O)c6ccc(Oc7c(C)cc(Cc8cc(C)c(Oc9ccc%10c(c9)C(=O)N(*)C%10=O)c(C)c8)cc7C)cc6C5=O)cc4)cc3)cc2)cc1 (repeat unit)
17 | 164.00 | *Oc1ccc(C(=O)c2ccccc2)c(-c2cc(Oc3ccc(C(c4ccc(*)cc4)(C(F)(F)F)C(F)(F)F)cc3)ccc2C(=O)c2ccccc2)c1 (repeat unit)
18 | 142.00 | *CCN(CCNC(=O)c1ccc2c(c1)C(=O)N(*)C2=O)c1ccc(/C=C/c2ccc([N+](=O)[O-])cc2)cc1 (repeat unit)
19 | 155.00 | *Oc1ccc(C(C)(C)c2cccc(C(C)(C)c3ccc(Oc4ccc(C(=O)Nc5cccc(NC(=O)c6ccc(*)cc6)c5)cc4)cc3)c2)cc1 (repeat unit)
20 | 85.00 | *Oc1ccc(C(C)(C)c2ccc(OC(=O)c3ccc(CC(*)=O)cc3)cc2)cc1 (repeat unit)
21 | 142.00 | *c1cccc(OCCCCCCCCOc2cccc(N3C(=O)c4ccc(-c5cccc6c5C(=O)N(*)C6=O)cc4C3=O)c2)c1 (repeat unit)
22 | 290.00 | *c1ccc(-c2ccc(-c3nc4cc(Oc5ccc(NC(=O)c6ccc7c(c6)C(=O)N(c6ccc(C(c8ccc(N9C(=O)c%10ccc(C(=O)Nc%11ccc(Oc%12ccc%13nc(-c%14ccccc%14)c(*)nc%13c%12)cc%11)cc%10C9=O)cc8)(C(F)(F)F)C(F)(F)F)cc6)C7=O)cc5)ccc4nc3-c3ccccc3)cc2)cc1 (repeat unit)
23 | 221.00 | *c1cccc(Oc2cccc(Oc3cccc(-n4c(=O)c5cc6c(=O)n(*)c(=O)c6cc5c4=O)c3)c2)c1 (repeat unit)
24 | 191.00 | *CC(*)c1ccccc1C(=O)Nc1ccccc1 (repeat unit)
25 | 115.00 | *CCN(CCOC(=O)Nc1ccc(Cc2ccc(NC(=O)O*)cc2)cc1)c1ccc(/N=N/c2ccc([N+](=O)[O-])cc2)c(C)c1 (repeat unit)
26 | 67.00 | *c1ccc(C2C3C(=O)N(c4ccc(N5C(=O)C6ON(C)C(*)C6C5=O)cc4)C(=O)C3ON2C)cc1 (repeat unit)
27 | 102.00 | *Oc1ccc(OC(=O)c2ccc(C(*)=O)cc2Oc2ccc3ccccc3c2)cc1 (repeat unit)
28 | 263.00 | *Oc1cccc2ccc(Oc3ccc(NC(=O)c4cc(C(=O)Nc5ccc(*)cc5)cc(C(C)(C)C)c4)cc3)cc12 (repeat unit)

Further lines, the molecule ahead of its results:

Row | Structure (SMILES) | glass transition temperature [°C]
29 | *CC(O)COc1c(C)cc(C(C)(C)c2cc(C)c(O*)c(C)c2)cc1C (repeat unit) | 130.00
30 | *CC(*)C(=O)OCCCCCCOc1ccc(/C=N/c2ccc(OCCCCC)cc2)c(O)c1 (repeat unit) | 41.00
31 | *CC(*)C(=O)c1ccc(C)cc1 (repeat unit) | 59.50
32 | *CC(*)C(=O)OCCCCCCOc1ccc(/N=N/c2ccc([N+](=O)[O-])cc2)cc1 (repeat unit) | 35.80
33 | *c1ccc2c(c1)C(CCCCCC)(CCCCCC)c1cc(*)ccc1-2 (repeat unit) | 102.50 ± 2.1
34 | *CC(*)C(=O)OCC(F)(F)C(F)(F)C(F)(F)C(F)F (repeat unit) | -35.00
35 | *CC(*)(C)C(=O)OCCCCOc1ccc(OC(=O)c2ccc(OCCCCCCCC)cc2)cc1 (repeat unit) | 10.00
36 | *Oc1ccc(CC(NC(=O)CCc2ccc(OC(=O)CCCC(*)=O)cc2)C(=O)OCCCCCCCC)cc1 (repeat unit) | 32.50
37 | *CC(*)c1ccc(C(=O)N(C)C)cc1 (repeat unit) | 125.00
38 | *c1ccc(-c2cc(-c3ccc(OCCCCCC)cc3)cc(-c3ccc(-c4ccc5c(c4)C(CCCCCC)(CCCCCC)c4cc(*)ccc4-5)cc3)c2-c2ccc(OCCCCCC)cc2)cc1 (repeat unit) | 118.00
39 | *CCCCCNC(=S)N* (repeat unit) | 55.00
40 | *CCC(C)C(C)CCNC(=O)c1cccc(C(=O)N*)c1 (repeat unit) | 125.00
41 | *c1ccc(-c2sc(-c3cc(CCCCCCCC)c(*)s3)cc2CCCCCCCC)cc1 (repeat unit) | 50.40
42 | *c1cccc(P(=O)(c2cccc(-n3c(=O)c4cc5c(=O)n(*)c(=O)c5c(-c5ccc(C(F)(F)F)cc5)c4c3=O)c2)c2cc(C(F)(F)F)cc(C(F)(F)F)c2)c1 (repeat unit) | 292.00
43 | *CCN(*)C(=O)CCC(=O)OC (repeat unit) | 31.00
44 | *Nc1cccc(NC(=O)Cc2cc(C)c(CC(*)=O)cc2C)c1 (repeat unit) | 249.00
45 | *Nc1cc(NC(=O)CCCCCCCCC(*)=O)cc(-c2nnc(-c3ccccn3)o2)c1 (repeat unit) | 85.00
46 | *CC(*)(C)C(=O)OCCCc1ccc(/N=N/c2ccc(OC(F)(F)F)cc2)cc1 (repeat unit) | 211.50

Row | Structure (SMILES) | glass transition temperature [°C]
47 | *OP(=O)(Oc1ccc(Br)cc1)Oc1ccc(S(=O)(=O)c2ccc(*)cc2)cc1 (repeat unit) | 89.00
48 | *c1ccc(OCCOc2ccc(/C=C/c3ccc([N+](=O)[O-])cc3)c(OCCOc3ccc(-c4nc5ccc(Oc6ccc7nc(*)c(-c8ccccc8)nc7c6)cc5nc4-c4ccccc4)cc3)c2)cc1 (repeat unit) | 187.00
49 | *O[Si](C)(C)O[Si](C)(C)O[Si](C)(C)O[Si](C)(C)Oc1c(C)cc(-c2cc(C)c(*)c(C)c2)cc1C (repeat unit) | -16.00
50 | *CCCCCCCCCCSSS* (repeat unit) | -70.00
51 | *Oc1ccc(CC(NC(=O)CCc2ccc(OC(=O)COCCOCC(*)=O)cc2)C(=O)OCC(C)C)cc1 (repeat unit) | 50.00
52 | *CC(*)(C)C(=O)OCCOc1ccc(/N=N/c2ccc([N+](=O)[O-])cc2)cc1 (repeat unit) | 112.00
53 | *CCCCC(c1ccc(O)cc1)C(*)c1ccc(O)cc1C (repeat unit) | 25.00
54 | *CC(*)c1ccc(COc2ccc(-c3ccc(C#N)cc3)cc2)cc1 (repeat unit) | 132.00
55 | *CC(*)C(=O)OCC1(CC)COCOC1 (repeat unit) | 42.00
56 | *CCCCOC(=O)c1cccc(C(=O)O*)c1 (repeat unit) [Poly(tetramethylene isophthalate)] | 21.42 ± 3.4
57 | *O[Si](C)(C)O[Si](C)(C)O[Si](*)(c1c(F)c(F)c(F)c(F)c1F)c1c(F)c(F)c(F)c(F)c1F (repeat unit) | -42.00
58 | *Oc1ccc(C(c2ccc(OC3(F)C(*)(F)C(F)(F)C3(F)F)cc2)(C(F)(F)F)C(F)(F)F)cc1 (repeat unit) | 122.50
59 | *CCCCCCOC(=O)Nc1cccc(P(=O)(c2ccccc2)c2cccc(NC(=O)O*)c2)c1 (repeat unit) | 30.00
60 | *c1ccc(-c2cnc3cc4ncc(*)nc4cc3n2)cc1 (repeat unit) | 392.00
61 | *CC(*)(C)C(=O)OCCCCc1ccccc1 (repeat unit) | 9.00
62 | *Nc1ccc(C(c2ccc(NC(=O)c3cc(C(*)=O)cc(C(C)(C)C)c3)cc2)(P2(=O)Oc3ccccc3-c3ccccc32)P2(=O)Oc3ccccc3-c3ccccc32)cc1 (repeat unit) | 235.00
63 | *CCCS(=O)(=O)CCCCS(=O)(=O)CCCOC(=O)c1ccccc1C(=O)O* (repeat unit) | 49.00
